This experiment has as its target phosphorylated Btk at Tyr223 in Ramos cells (Homo sapiens (Human), UniProt Q06187). Put plainly: Btk pY223 cellular assay (HTRF) in Ramos cells. Conditions: 1 hour compound incubation, pervanadate or Na3VO4 stimulation. It counts as cell-based.

Each structure is given as a SMILES string. Counter-ions that a name gives are not always drawn.

phosphorylated Btk at Tyr223 in Ramos cells, sequence (Q06187 whole entry): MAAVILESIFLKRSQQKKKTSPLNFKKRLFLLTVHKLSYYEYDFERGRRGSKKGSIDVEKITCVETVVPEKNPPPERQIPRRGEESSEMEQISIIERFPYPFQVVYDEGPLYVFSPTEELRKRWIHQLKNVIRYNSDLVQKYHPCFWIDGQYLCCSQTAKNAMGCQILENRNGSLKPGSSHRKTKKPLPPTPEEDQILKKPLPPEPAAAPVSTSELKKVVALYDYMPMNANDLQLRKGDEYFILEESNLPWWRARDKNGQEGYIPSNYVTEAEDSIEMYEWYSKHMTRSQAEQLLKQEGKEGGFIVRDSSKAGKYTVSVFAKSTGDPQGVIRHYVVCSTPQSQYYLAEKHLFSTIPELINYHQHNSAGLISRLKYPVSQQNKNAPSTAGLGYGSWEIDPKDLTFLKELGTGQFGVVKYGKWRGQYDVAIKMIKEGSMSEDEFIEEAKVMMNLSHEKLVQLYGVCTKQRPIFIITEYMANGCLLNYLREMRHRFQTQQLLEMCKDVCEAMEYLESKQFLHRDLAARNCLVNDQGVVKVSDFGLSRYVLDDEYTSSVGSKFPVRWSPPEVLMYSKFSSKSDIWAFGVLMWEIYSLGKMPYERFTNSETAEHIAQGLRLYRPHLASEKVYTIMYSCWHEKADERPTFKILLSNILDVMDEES
Protocol: Btk pY223 cellular assay is a HTRF based assay intended to determine the endogenous levels of phosphorylated Btk at Tyr223.
Briefly, Ramos cells were serum starved in 0.5% FBS-containing RPMI1640 for 2 hours. Following starvation, the cells were incubated with compounds to be detected at various concentrations in a CO2 incubator for 1 hour. After incubation, cells were stimulated with 1 mM pervanadate (PV) or Na3VO4 (OV) for 20 min. Then, the cells were spinned down and lysed with 1× lysis buffer at RT for 10 min (4× lysis buffer supplied in the kit). During the incubation, 1× antibody mix was prepared by diluting anti-Btk-d2 and anti-pBtk-K in detection buffer (supplied in the kit). […] After that, 18 ul of cell lysate was transferred to the assay plate pre-loaded with antibody solution. After mixing gently and spinning briefly, the plate was sealed up and kept in dark at RT for 18 hours. […] IC50 values were calculated with GraphPad Prism software using the sigmoidal dose-response function.

Turning to `C=CC(=O)N1CC(C2(C)CCNc3c(C(N)=O)c(-c4ccc(Oc5ccccc5)cc4)nn32)C1` (centres unmarked) [Compound 175, 7-(1-Acryloylazetidin-3-yl)-7-methyl-2-(4-phenoxyphenyl)-4,5,6,7-tetrahydropyrazolo-[1,5-a]pyrimidine-3-carboxamide], the IC50 stood at 17.6 nM.

`NC(=O)c1c(-c2ccc(Oc3ccccc3)cc2)nn2c1NCC[C@H]2C1CCN(C(=O)C#CCN2CCCC2)CC1` [Compound 187, (S)-2-(4-Phenoxyphenyl)-7-(1-(4-(pyrrolidin-1-yl)but-2-ynoyl)piperidin-4-yl)-4,5,6,7-tetrahydropyrazolo-[1,5-a]pyrimidine-3-carboxamide] returned an IC50 of 7.3 nM. This IC50 lies about 2.4-fold lower than the previous one.

As to `C=CC(=O)Nc1ccccc1C1CCNc2c(C(N)=O)c(-c3ccc(Cl)c(F)c3)nn21` (centres unmarked) [Compound 154, 7-(2-Acrylamidophenyl)-2-(4-chloro-3-fluorophenyl)-4,5,6,7-tetrahydropyrazolo[1,5-a]pyrimidine-3-carboxamide], the IC50 is 1.5 nM.

For `C=CC(=O)Nc1ccccc1C1CCNc2c(C(N)=O)c(-c3ccc(C(F)(F)F)c(Cl)c3)nn21` (centres unmarked) [Compound 162, 7-(2-Acrylamidophenyl)-2-(3-chloro-4-(trifluoromethyl)phenyl)-4,5,6,7-tetrahydropyrazolo[1,5-a]pyrimidine-3-carboxamide], the IC50 was determined as 3.2 nM.

The molecule `C=CC(=O)Nc1ccc2c(c1)-n1nc(-c3ccc(Oc4ccccc4)cc3)c(C(N)=O)c1NC2` [Compound 69, 8-Acrylamido-2-(4-phenoxyphenyl)-4,5-dihydropyrazolo[1,5-a]quinazoline-3-carboxamide] returned an IC50 of 34.4 nM.

Take `CCC#CC(=O)N1CCC([C@@H]2CCNc3c(C(N)=O)c(-c4ccc(Oc5ccccc5)cc4)nn32)CC1` [Compound 186, (S)-7-(1-(Pent-2-ynoyl)piperidin-4-yl)-2-(4-phenoxyphenyl)-4,5,6,7-tetrahydropyrazolo-[1,5-a]pyrimidine-3-carboxamide]: the IC50 worked out at 10.3 nM.

As for `NC(=O)c1c(-c2ccc(Oc3ccccc3)cc2)nn2c1NCCC2C1CCN(C(=O)/C=C/CN2CCCCC2)CC1` (centres unmarked) [Compound 170, (E)-2-(4-Phenoxyphenyl)-7-(1-(4-(piperidin-1-yl)but-2-enoyl)piperidin-4-yl)-4,5,6,7-tetrahydropyrazolo[1,5-a]pyrimidine-3-carboxamide], the IC50 worked out at 33.7 nM.

The molecule `C=CC(=O)N1CC(C2CCNc3c(C(N)=O)c(-c4ccc(Oc5ccccc5)c(Cl)c4)nn32)C1` (centres unmarked) [Compound 139, 7-(1-acryloylazetidin-3-yl)-2-(3-chloro-4-phenoxyphenyl)-4,5,6,7-tetrahydropyrazolo[1,5-a]pyrimidine-3-carboxamide] registered an IC50 of 3.1 nM.

Molecule `C=CC(=O)Nc1ccccc1C1CCNc2c(C(N)=O)c(-c3ccc(F)c(C)c3)nn21` (centres unmarked) [Compound 157, 7-(2-Acrylamidophenyl)-2-(4-fluoro-3-methylphenyl)-4,5,6,7-tetrahydropyrazolo[1,5-a]pyrimidine-3-carboxamide] came in with an IC50 of 20 nM.

On to `NC(=O)c1c(-c2ccc(F)c(Cl)c2)nn2c1NCCC2c1ccccc1NC(=O)/C=C/CN1CCCCC1` (centres unmarked) [Compound 153, (E)-2-(3-Chloro-4-fluorophenyl)-7-(2-(4-(piperidin-1-yl)but-2-enamido)phenyl)-4,5,6,7-tetrahydropyrazolo-[1,5-a]pyrimidine-3-carboxamide], for which 165 nM corresponded to half-maximal inhibition (IC50).

The molecule `C=CC(=O)Nc1ccccc1C1CCNc2c(C(N)=O)c(-c3cc(Cl)c(OC)c(Cl)c3)nn21` (centres unmarked) [Compound 169, 7-(2-Acrylamido-phenyl)-2-(3,5-dichloro-4-methoxyphenyl)-4,5,6,7-tetrahydropyrazolo-[1,5-a]pyrimidine-3-carboxamide] returned an IC50 of 7 nM. Compared with the last molecule, the IC50 is about 24-fold lower.

`C=CC(=O)Nc1ccccc1C1CCNc2c(C(N)=O)c(-c3ccc(Cl)c(OC)c3)nn21` (centres unmarked) [Compound 160, 7-(2-Acrylamidophenyl)-2-(4-chloro-3-methoxyphenyl)-4,5,6,7-tetrahydropyrazolo[1,5-a]pyrimidine-3-carboxamide] had an IC50 of 1.3 nM.

`C=CC(=O)N1CCC(C2(C)CCNc3c(C(N)=O)c(-c4ccc(Oc5ccccc5)cc4)nn32)CC1` (centres unmarked) [Compound 138, 7-(1-acryloylpiperidin-4-yl)-7-methyl-2-(4-phenoxyphenyl)-4,5,6,7-tetrahydropyrazolo[1,5-a]pyrimidine-3-carboxamide] yielded an IC50 of 7.6 nM.

`CC=CC(=O)N1CCc2[nH]c3c(C(N)=O)c(-c4ccc(Oc5ccccc5)cc4)nn3c2C1` [Compound 58, 7-(But-2-enoyl)-2-(4-phenoxyphenyl)-5,6,7,8-tetrahydro-4H-pyrazolo[5′,1′:2,3]imidazo[4,5-c]pyridine-3-carboxamide] yielded an IC50 of 4.6 nM.

Molecule `C=CC(=O)N1CC(C2CCNc3c(C(N)=O)c(-c4ccc(Oc5ccccc5C#N)cc4)nn32)C1` (centres unmarked) [Compound 135, 7-(1-acryloylazetidin-3-yl)-2-(4-(2-cyanophenoxy)phenyl)-4,5,6,7-tetrahydropyrazolo[1,5-a]pyrimidine-3-carboxamide] gave an IC50 of 2.4 nM.

Molecule `C=CC(=O)Nc1ccccc1C1CCNc2c(C(N)=O)c(-c3ccc(F)c(Br)c3)nn21` (centres unmarked) [Compound 152, 7-(2-Acrylamidophenyl)-2-(3-bromo-4-fluorophenyl)-4,5,6,7-tetrahydropyrazolo[1,5-a]pyrimidine-3-carboxamide] displayed an IC50 of 1.8 nM.

Molecule `C=CC(=O)NCC1CNc2c(C(N)=O)c(-c3ccc(Oc4ccccc4)cc3)nn2C1` (centres unmarked) [Compound 86, 6-(Acrylamidomethyl)-2-(4-phenoxyphenyl)-4,5,6,7-tetrahydro pyrazolo[1,5-a]pyrimidine-3-carboxamide] came in with an IC50 of 4.4 nM.

Molecule `C=CC(=O)N1CC(C2CCNc3c(C(N)=O)c(-c4ccc(OCc5ccccc5)cc4)nn32)C1` (centres unmarked) [Compound 104, 7-(1-acryloylazetidin-3-yl)-2-(4-(benzyloxy)phenyl)-4,5,6,7-tetrahydropyrazolo-[1,5-a]pyrimidine-3-carboxamide] showed an IC50 of 20.6 nM.

Take `C=CC(=O)N1CC(C2CCNc3c(C(N)=O)c(-c4ccc(Oc5ccc(Cl)c(Cl)c5)cc4)nn32)C1` (centres unmarked) [Compound 132, 7-(1-acryloylazetidin-3-yl)-2-(4-(3,4-dichlorophenoxy)phenyl)-4,5,6,7-tetrahydropyrazolo[1,5-a]pyrimidine-3-carboxamide]: the IC50 came out at 6.2 nM.

The molecule `C=CC(=O)NCC1(C)CCNc2c(C(N)=O)c(-c3ccc(Oc4ccccc4)cc3)nn21` (centres unmarked) [Compound 143, 7-(acrylamidomethyl)-7-methyl-2-(4-phenoxyphenyl)-4,5,6,7-tetrahydropyrazolo[1,5-a]pyrimidine-3-carboxamide] displayed an IC50 of 4.1 nM.

With `C=CC(=O)N1CC2(CNc3c(C(N)=O)c(-c4ccc(Oc5ccccc5)cc4)nn32)C1` [Compound 46, 1-Acryloyl-6′-(4-phenoxyphenyl)-1′,2′-dihydrospiro[azetidine-3,3′-imidazo[1,2-b]pyrazole]-7′-carboxamide], the IC50 amounted to 22.6 nM.

In turn, `C=CC(=O)N1CCCC1C1CCNc2c(C(N)=O)c(-c3ccc(Oc4ccccc4)cc3)nn21` (centres unmarked) [Compound 103, 7-(1-acryloylpyrrolidin-2-yl)-2-(4-phenoxyphenyl)-4,5,6,7-tetrahydropyrazolo-[1,5-a]pyrimidine-3-carboxamide] returned an IC50 of 14 nM.

Take `C=CC(=O)Nc1ccccc1C1CCNc2c(C(N)=O)c(-c3ccc(F)c(F)c3)nn21` (centres unmarked) [Compound 137, 7-(2-acrylamidophenyl)-2-(3,4-difluorophenyl)-4,5,6,7-tetrahydropyrazolo[1,5-a]pyrimidine-3-carboxamide]: inhibition was half-maximal at 22.7 nM (IC50).

In the case of `C=CC(=O)N1CCC2(CCNc3c(C(N)=O)c(-c4ccc(Oc5ccccc5)cc4)nn32)CC1` [Compound 43, 1-Acryloyl-2′-(4-phenoxyphenyl)-5′,6′-dihydro-4′H-spiro[piperidine-4,7′-pyrazolo[1,5-a]pyrimidine]-3′-carboxamide], the IC50 came to 75.8 nM.

`C=CC(=O)N(C)CC1CCNc2c(C(N)=O)c(-c3ccc(Oc4ccccc4)cc3)nn21` (centres unmarked) [Compound 35] displayed an IC50 of 7.9 nM.

Consider `C=CC(=O)Nc1ccccc1C1CCNc2c(C(N)=O)c(-c3ccc(Oc4ccc(F)cc4)cc3)nn21` (centres unmarked) [Compound 12, 7-(2-Acrylamidophenyl)-2-(4-(4-fluorophenoxyl)phenyl)-4,5,6,7-tetrahydropyrazolo[1,5-a]pyrimidine-3-carboxamide], for which the 50% inhibitory concentration (IC50) worked out at 23.6 nM. This IC50 lies about 3-fold higher than the previous one.

Consider `C=CC(=O)Nc1ccccc1C1CCNc2c(C(N)=O)c(-c3ccc(F)c(Cl)c3)nn21` (centres unmarked) [Compound 196, 7-(2-Acrylamidophenyl)-2-(3-chloro-4-fluorophenyl)-4,5,6,7-tetrahydropyrazolo-[1,5-a]pyrimidine-3-carboxamide], for which the IC50 was found to be 2 nM. This IC50 lies about 12-fold lower than the previous one.

With `C=CC(=O)Nc1ccccc1C1CCNc2c(C(N)=O)c(-c3ccc(Cl)c(Cl)c3)nn21` (centres unmarked) [Compound 156, 7-(2-Acrylamidophenyl)-2-(3,4-dichlorophenyl)-4,5,6,7-tetrahydropyrazolo-[1,5-a]pyrimidine-3-carboxamide], the IC50 was 6.8 nM.

`CN(C)CCC(=O)N1CCc2[nH]c3c(C(N)=O)c(-c4ccc(Oc5ccccc5)cc4)nn3c2C1` [Compound 57, 7-(3-(Dimethylamino)propanoyl)-2-(4-phenoxyphenyl)-5,6,7,8-tetrahydro-4H-pyrazolo[5′,1′:2,3]imidazo[4,5-c]pyridine-3-carboxamide trifluoroacetate] came in with an IC50 of 233 nM.

The molecule `C=CC(=O)N1CC(C2CCNc3c(C(N)=O)c(-c4ccc(Oc5ccc(Cl)cc5)cc4)nn32)C1` (centres unmarked) [Compound 106, 7-(1-acryloylazetidin-3-yl)-2-(4-(4-chlorophenoxy)-phenyl)-4,5,6,7-tetrahydropyrazolo[1,5-a]pyrimidine-3-carboxamide] showed an IC50 of 30.3 nM.

Turning to `C=CC(=O)Nc1ccc2c(c1)c(=O)[nH]c1c(C(N)=O)c(-c3ccc(Oc4ccccc4)cc3)nn12` [Compound 78, 7-Acrylamido-5-oxo-2-(4-phenoxyphenyl)-4,5-dihydropyrazolo[1,5-a]quinazoline-3-carboxamide], the 50% inhibitory concentration (IC50) turned out to be 140 nM.

`C=CC(=O)Nc1ccccc1C1CCNc2c(C(N)=O)c(-c3ccc(OCc4ccccn4)c(Cl)c3)nn21` (centres unmarked) [Compound 146, 7-(2-Acrylamido-phenyl)-2-(3-chloro-4-(pyridin-2-ylmethoxy)phenyl)-4,5,6,7-tetrahydropyrazolo[1,5-a]pyrimidine-3-carboxamide]: the IC50 came to 4 nM. Against the preceding molecule, the IC50 is about 35-fold lower.
